In experiment [1] the test system is 5-hydroxy-L-tryptophan (5-HTP) induced behavioural syndrome. As to the kind of experiment: Potentiation of 5-HTP induced behavioural syndrome, dose/response study in mice. Format: in vivo. The conditions noted are these: Mus musculus, po, 5-HTP 80 mg/kg i.p. Here is the method: (§1) Thus, this test can be used as an indication of in vivo 5-HT uptake inhibition.
a) Dose/response study in mice
Groups of 12 (2 subgroups of 6) female mice (18-22g) were used per dose, each group being housed in a separate cage for the duration of the experiment. Mice were dosed p.o. with either test compound or vehicle (0.5% HPMC) and 30 minutes later received a threshold dose of 5-HTP (80 mg/kg i.p.) and were placed in perspex cylinders (12" diameter).
The dose that produced the syndrome in 50% of the mice was calculated using the method of Litchfield and Wilcoxon, […]

Experiment [2] deals with neuronal uptake of 5-hydroxytryptamine into slices of cerebral cortex. As to the kind of experiment: Inhibition of 5-hydroxytryptamine (5-HT) uptake in brain slices. The note with it: rat cerebral cortex slices, relative to imipramine. Format: biochemical. The method, then:
Compounds of formula I were tested for ability to inhibit 5-hydroxytryptamine (5-HT) uptake in brain slices using the following procedure:
Concentration-response curves for the test compound and for the standard agent, imipramine, are obtained. The potency of the test compound is expressed in proportion to that of imipramine. Thus, the potency ratio for the test compound [formula]

Experiment [3] relates to uptake of 5-HT into rat brain synaptosomes. Briefly: Inhibition of 5-HT uptake into rat brain synaptosomes. Format: biochemical, male Sprague Dawley rats. Here is the method:
(§2) The test procedure involved obtaining synaptosomal preparations from male Sprague Dawley rats according to the method of Grey and Whittaker* as modified by Wood and Wyllie.** Aliquots of the synaptosomal preparation were then incubated with tritrated noradrenaline (NA) or 5-HT at a temperature of 37° C. for 4 minutes. The active synaptosomal accumulation of labelled substrate was measured by filtration and scintillation counting. The effect at a range of concentrations of test compound enabled IC50 values and selectivity ratios to be calculated.
(§3) * Grey and Whittaker,--J. Anat. 96 79 (1962)
(§4) ** Wood and Wyllie, J. Neurochemistry, 37, 795 (1981)

Experiment [4] concerns p-chloroamphetamine (pCA) induced hyperactivity. Briefly: Inhibition of p-chloroamphetamine (pCA) induced hyperactivity in mice. Format: in vivo. The note with it: Mus musculus, po, female mice, 50 mg/kg po, pCA 20 mg/kg ip, 10-30 minutes post pCA. Here is the method: The following test procedure was used to test for ability to inhibit p-chloroamphetamine induced hyperactivity.
Three groups of 4 female mice (20-24 g) receive the test compounds (50 mg/kg po) and a fourth group the requisite volume of vehicle. Thirty minutes later all the animals are given 20 mg/kg p-chloroamphetamine (pCA) ip. The grouped mice are placed immediately in square plastic cages in activity monitors and their motor activity recorded over the period 10-30 minutes post pCA. This procedure is repeated three more times so that four groups of mice are used per treatment and each activity monitor is used with all treatments in turn. The inhibition of pCA induced hyperactivity is calculated thus: [formula] where C=mean activity of control groups 10-30 minutes post pCA.
T=mean activity of treated groups 10-30 minutes post pCA.
This test is used as an in vivo screen for detection of 5-hydroxytryptamineuptake inhibitors.
Compounds giving >50% inhibition are considered of special interest. In such a test the following compounds were particularly active: […]

The test system of experiment [5] is uptake of ^3 H noradrenaline into rat brain synaptosomes. As to the kind of experiment: Inhibition of 3H noradrenaline uptake into rat brain synaptosomes. Format: biochemical, male Sprague Dawley rats. The conditions noted are these: 37° C., 4 minutes, read-out: IC50 NA uptake. The method, then:
as §2, §3, §4

The test system of experiment [6] is 5-hydroxy-L-tryptophan (5-HTP) induced behavioural syndrome. As to the kind of experiment: Potentiation of 5-HTP induced behavioural syndrome, dose/response study in rats. Format: in vivo. The conditions noted are these: Rattus norvegicus, ip, 5-HTP 70 mg/kg i.p. The method, then:
as §1
b) Dose/Response study in rats
Groups of 6 male rats (150 g) were dosed with test compound suspended in HPMC. Thirty minutes later 5-HTP (70 mg/kg 5 i.p.) was given and the number of signs/rat recorded between 20 and 35 minutes post 5-HTP. Linear regression analysis of the results was performed and the ED50 calculated from this.

The subject of experiment [7] is 5-hydroxy-L-tryptophan induced behavioural syndrome. Briefly: Potentiation of 5-hydroxytryptophan (5-HTP)-induced behaviour in rats. The note with it: Rattus norvegicus, po, 5-HTP 50 mg/kg s.c., citrate salt, corrected for amount of base. Format: in vivo, male Sprague-Dawley rats. The method, then: The compound (C) was also tested for its ability to potentiate 5-hydroxy-L-tryptophan induced behavioural syndrome in rats. The test procedure is described below
Potentiation of 5-hydroxytryptophan (5-HTP)-induced behaviour
Groups of 10 male Sprague-Dawley rats (310-360 g) were dosed p.o. with vehicle or drugs. Ninety minutes later 5-HTP (50 mg/kg s.c.) was administered and the animals placed in individual observation chambers (peripheral decarboxylation was prevented by 25 mg/kg i.p. carbidopa administered 60 minutes before 5-HTP). Head shakes were counted over the period 30-45 minutes after 5-HTP and the intensity of the 5-HT syndrome was scored immediately afterwards using the system described for the pCA procedure above. Percentage potentiation of syndrome was calculated as follows: […]
Percentage potentiation was calculated from the following: [formula]

Experiment [8] deals with p-chloroamphetamine (pCA)-induced stereotypy. Briefly: Inhibition of p-chloroamphetamine (pCA)-induced stereotypy in rats. Format: in vivo, male Sprague-Dawley rats. The note with it: for ED50: Rattus norvegicus, po, 90 minutes before pCA 10 mg/kg i.p., results for succinate salt corrected for amount of active material, read-out: ED50 (dose required to produce 50% inhibition of pCA induced stereotypy); for ED50 / antagonism of pCA-induced stereotypy (in words): rats, p.o.; for antagonism of pCA-induced stereotypy (in words): 5 dose levels. The method, then: Representative compounds of formula IA were tested for their ability to inhibit pCA induced syndrome in rats by the standard procedure described below:
Inhibition of p-chloroamphetamine (pCA)-induced stereotypy
Vehicle or drug (5 dose levels) were administered p.o. to six groups of 6-8 male Sprague-Dawley rats (300-400 g) followed, 90 minutes later, by pCA (10 mg/kg i.p.). The animals were then placed in individual observation chambers and, 30 minutes after pCA administration, the intensity of the pCA-induced 5-HT syndrome was assessed according to the following scoring system: […]
Therefore, the maximum score for each animal was 10.
The inhibition of pCA induced stereotypy is calculated for each dose level as follows: [formula] where C=control group total score at 30 minutes post pCA.
T=group total score of treated group at 30 minutes post pCA.
For each dose a % effect is calculated.
The results obtained from the tests using 5 different dose levels of the drug allow the ED50 value (i.e. the dose required to produce 50% inhibition of pCA induced stereotypy) to be calculated.
The test was carried out using the free bases for compound C. Compound B was tested in the form of the succinate salt and the results corrected for amount of active material.

In general, ED50 refers to the dose that gives a 50% effect, or the effect in half of the subjects. As usually defined, the IC50 is the midpoint of a concentration-inhibition curve. What is called inhibition in vivo is the percentage by which the read-out fell short of the control. Low values mean little suppression, high ones strong suppression. As to `O=C(NC(=O)c1ccccc1)NC1CCN(Cc2ccc3ccccc3c2)CC1` [Example 1, 1-Benzoyl-3-[1-(naphth-2-ylmethyl)piperid-4-yl]urea], the ED50 in experiment [1] is 7.2 mg/kg; in experiment [6], 5.3 mg/kg. The “potency ratio (imipramine=1.0)” value in experiment [2] was 8.8. Moreover, the “Selectivity Ratio” value in experiment [3] (5-HT uptake relative to NA uptake) was 455. The IC50 in experiment [3] (37° C., 4 minutes) came to 0.044 µM; in experiment [5], 20 µM. In experiment [4], this compound returned an inhibition in vivo at 50 mg/kg of 67.5%.

On to `O=C(NC(=O)c1ccccc1)NC1CCN(Cc2cccc3ccccc23)CC1` [Example 2, 1-Benzoyl-3-[1-(naphth-1-ylmethyl)piperid-4-yl]urea], for which, in experiment [4], the inhibition in vivo at 50 mg/kg came out at 56.4%.

Compound `CC(C)c1ccc(CN2CCC(NC(=O)NC(=O)c3ccccc3)CC2)cc1` [Example 3, 1-Benzoyl-3-[1-(4-isopropylbenzyl)piperid-4-yl]urea] showed an inhibition in vivo at 50 mg/kg in experiment [4] of 49%.

In experiment [4], `Cc1ccc(CN2CCC(NC(=O)NC(=O)c3ccccc3)CC2)cc1C` [Example 6, 1-Benzoyl-3-[1-(3,4-dimethylbenzyl)piperid-4-yl]urea] showed an inhibition in vivo at 50 mg/kg of 68.9%.

`O=C(NC(=O)c1ccccc1)NC1CCN(Cc2ccc3c(c2)CCCC3)CC1` [Example 14, 1-Benzoyl-3-[1-(5,6,7,8-tetrahydro-naphth-2-ylmethyl)piperid-4-yl]urea] returned an inhibition in vivo at 50 mg/kg in experiment [4] of 69.4%.

In the case of `CCc1ccc(CN2CCC(NC(=O)NC(=O)c3ccccc3)CC2)cc1` [Example 15, 1-Benzoyl-3-[1-(4-ethylbenzyl)piperid-4-yl]urea], the inhibition in vivo at 50 mg/kg in experiment [4] came out at 72.9%.

`O=C(NC(=O)c1ccccc1)NC1CCN(Cc2ccc3c(c2)CCC3)CC1` [Example 20, 1-Benzoyl-3-[1-(indan-5-ylmethyl)-piperid-4-yl]urea]: the inhibition in vivo at 50 mg/kg in experiment [4] is 59.3%.

In experiment [4], `CC(c1ccc2ccccc2c1)N1CCC(NC(=O)NC(=O)c2ccccc2)CC1` (centres unmarked) [Example 21, 1-Benzoyl-3-[1-(1-(naphth-2-yl)ethyl)-piperid-4-yl]urea] yielded an inhibition in vivo at 50 mg/kg of 71.7%.

With `O=C(NC(=O)c1cccnc1)NC1CCN(Cc2ccc3cc(F)ccc3c2)CC1` [Example 62, N[[[1-[(6-Fluoro-2-naphthalenyl)methyl]-4-piperidinyl]amino]carbonyl]-3-pyridinecarboxamide], the median effective dose (ED50) in experiment [7] was 5 mg/kg. This compound also returned an inhibition of syndrome in experiment [8] (At 50 mg/kg) of 99%. In experiment [8], the ED50 is 2.5 mg/kg and the “antagonism of pCA-induced stereotypy (in words)” value is reported as “antagonised pCA-induced stereotypy in a dose-dependent manner”.

`O=C(NC(=O)c1ccncc1)NC1CCN(Cc2ccc3cc(F)ccc3c2)CC1` [Example 63, N-[[[1-[(6-Fluoro-2-naphthalenyl)methyl]-4-piperidinyl]amino]carbonyl]-4-pyridinecarboxamide]: in experiment [8], the median effective dose (ED50) came to 3.8 mg/kg and the “antagonism of pCA-induced stereotypy (in words)” value is recorded as “antagonised pCA-induced stereotypy in a dose-dependent manner”.

Turning to `CN(C)CCCN1c2ccccc2CCc2ccc(Cl)cc21` [clomipramine, reference compound], the ED50 in experiment [1] was 18 mg/kg; in experiment [6], 39.2 mg/kg.

Turning to `CN(C)CCCN1c2ccccc2CCc2ccccc21` [imipramine, reference compound], the “potency ratio (imipramine=1.0)” value in experiment [2] was 1.0.

Values taken from patent publication US5212179A, “Piperidine derivatives” (John Wyeth and Brother Limited, priority 1980, dated 1993).
